Test results from ChEMBL document CHEMBL4507269, “Data for DCP probe BAY-386” (2021).

Experiments:
[1] = molecular target: G protein-coupled receptor kinase 4 (Homo sapiens) (UniProt P32298); conditions: Compound concentration 1000.0 nM
[2] = molecular target: 5-hydroxytryptamine receptor 2C (Homo sapiens) (UniProt P28335); conditions: Compound concentration 10.0 uM
[3] = molecular target: Tyrosine-protein kinase Fer (Homo sapiens) (UniProt P16591); conditions: Compound concentration 1000.0 nM
[4] = molecular target: Histamine H1 receptor (Homo sapiens) (UniProt P35367); test: H1 (h) Eurofins-Cerep Cellular and Nuclear Receptor Functional Assays; conditions: Compound concentration 10.0 uM
[5] = molecular target: Inhibitor of nuclear factor kappa-B kinase subunit alpha (Homo sapiens) (UniProt O15111); conditions: Compound concentration 1000.0 nM
[6] = molecular target: Mitogen-activated protein kinase kinase kinase 14 (Homo sapiens) (UniProt Q99558); conditions: Compound concentration 1000.0 nM
[7] = molecular target: Fibroblast growth factor receptor 3 (Homo sapiens) (UniProt P22607); conditions: Compound concentration 1000.0 nM
[8] = molecular target: Serine/threonine-protein kinase RIO1 (Homo sapiens) (UniProt Q9BRS2); conditions: Compound concentration 1000.0 nM
[9] = molecular target: T1, Muscarinic acetylcholine receptor M1 (Homo sapiens) (UniProt P11229); test: M1 (h) Eurofins-Cerep Cellular and Nuclear Receptor Functional Assays; conditions: Compound concentration 10.0 uM
T1 sequence (whole entry): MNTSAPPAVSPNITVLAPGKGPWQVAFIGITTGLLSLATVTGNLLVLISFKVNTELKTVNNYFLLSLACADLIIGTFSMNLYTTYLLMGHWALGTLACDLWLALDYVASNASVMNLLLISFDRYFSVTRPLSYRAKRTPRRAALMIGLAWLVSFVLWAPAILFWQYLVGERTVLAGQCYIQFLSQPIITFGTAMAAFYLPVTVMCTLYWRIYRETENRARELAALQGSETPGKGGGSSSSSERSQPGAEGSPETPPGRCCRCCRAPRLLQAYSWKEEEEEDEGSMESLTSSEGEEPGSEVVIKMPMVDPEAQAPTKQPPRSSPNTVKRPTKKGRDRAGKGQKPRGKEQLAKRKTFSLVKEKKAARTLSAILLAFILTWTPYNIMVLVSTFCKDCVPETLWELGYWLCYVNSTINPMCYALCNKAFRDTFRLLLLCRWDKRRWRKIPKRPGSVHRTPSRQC

[10] = system: Epidermal growth factor receptor (Homo sapiens), P00533 [UNDEFINED MUTATION]; conditions: Compound concentration 1000.0 nM
[11] = molecular target: Glycogen synthase kinase-3 alpha (Homo sapiens) (UniProt P49840); conditions: Compound concentration 1000.0 nM
[12] = molecular target: Citron Rho-interacting kinase (Homo sapiens) (UniProt O14578); conditions: Compound concentration 1000.0 nM
[13] = system: Epidermal growth factor receptor (Homo sapiens), P00533 [UNDEFINED MUTATION]; conditions: Compound concentration 1000.0 nM; remark: listed apart in the source
[14] = molecular target: MAP kinase-activated protein kinase 5 (Homo sapiens) (UniProt Q8IW41); conditions: Compound concentration 1000.0 nM
[15] = molecular target: Serine/threonine-protein kinase WNK2 (Homo sapiens) (UniProt Q9Y3S1); conditions: Compound concentration 1000.0 nM
[16] = molecular target: Activin receptor type-1-like (Homo sapiens) (UniProt P37023); conditions: Compound concentration 1000.0 nM
[17] = molecular target: Casein kinase II subunit alpha' (Homo sapiens) (UniProt P19784); conditions: Compound concentration 1000.0 nM
[18] = molecular target: Tyrosine-protein kinase Blk (Homo sapiens) (UniProt P51451); conditions: Compound concentration 1000.0 nM
[19] = molecular target: Activin receptor type-2B (Homo sapiens) (UniProt Q13705); conditions: Compound concentration 1000.0 nM
[20] = molecular target: Muscarinic acetylcholine receptor M3 (Homo sapiens) (UniProt P20309); conditions: Compound concentration 10.0 uM
[21] = molecular target: 5-hydroxytryptamine receptor 1B (Homo sapiens) (UniProt P28222); conditions: Compound concentration 10.0 uM
[22] = molecular target: Dual specificity mitogen-activated protein kinase kinase 3 (Homo sapiens) (UniProt P46734); conditions: Compound concentration 1000.0 nM
[23] = molecular target: Cyclin-dependent kinase-like 2 (Homo sapiens) (UniProt Q92772); conditions: Compound concentration 1000.0 nM
[24] = molecular target: Cyclin-dependent kinase 16 (Homo sapiens) (UniProt Q00536); conditions: Compound concentration 1000.0 nM
[25] = molecular target: Tyrosine-protein kinase FRK (Homo sapiens) (UniProt P42685); conditions: Compound concentration 1000.0 nM
[26] = molecular target: Histamine H1 receptor (Homo sapiens) (UniProt P35367); conditions: Compound concentration 10.0 uM
[27] = molecular target: Cyclin-dependent kinase 17 (Homo sapiens) (UniProt Q00537); conditions: Compound concentration 1000.0 nM
[28] = molecular target: Serine/threonine-protein kinase D1 (Homo sapiens) (UniProt Q15139); conditions: Compound concentration 1000.0 nM
[29] = molecular target: Serine/threonine-protein kinase PAK 1 (Homo sapiens) (UniProt Q13153); conditions: Compound concentration 1000.0 nM
[30] = molecular target: Hormonally up-regulated neu tumor-associated kinase (Homo sapiens) (UniProt P57058); conditions: Compound concentration 1000.0 nM
[31] = molecular target: Tyrosine-protein kinase HCK (Homo sapiens) (UniProt P08631); conditions: Compound concentration 1000.0 nM
[32] = molecular target: Serine/threonine-protein kinase Sgk3 (Homo sapiens) (UniProt Q96BR1); conditions: Compound concentration 1000.0 nM
[33] = molecular target: T2, D(4) dopamine receptor (Homo sapiens) (UniProt P21917); conditions: Compound concentration 10.0 uM
T2 sequence (whole entry): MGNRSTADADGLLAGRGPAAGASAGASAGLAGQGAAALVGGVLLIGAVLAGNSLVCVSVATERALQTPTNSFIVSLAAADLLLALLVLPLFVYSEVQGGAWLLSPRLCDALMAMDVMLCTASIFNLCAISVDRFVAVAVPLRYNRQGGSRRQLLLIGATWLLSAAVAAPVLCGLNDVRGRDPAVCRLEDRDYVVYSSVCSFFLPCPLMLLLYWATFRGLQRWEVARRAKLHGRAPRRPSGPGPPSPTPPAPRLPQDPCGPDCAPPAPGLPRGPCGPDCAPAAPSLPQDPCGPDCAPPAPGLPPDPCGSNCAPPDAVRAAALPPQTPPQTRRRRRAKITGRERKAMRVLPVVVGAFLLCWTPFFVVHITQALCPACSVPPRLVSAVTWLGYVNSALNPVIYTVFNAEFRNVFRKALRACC

Chain of Epidermal growth factor receptor (Homo sapiens), P00533 [UNDEFINED MUTATION] (P00533 whole entry, looked up, change not shown): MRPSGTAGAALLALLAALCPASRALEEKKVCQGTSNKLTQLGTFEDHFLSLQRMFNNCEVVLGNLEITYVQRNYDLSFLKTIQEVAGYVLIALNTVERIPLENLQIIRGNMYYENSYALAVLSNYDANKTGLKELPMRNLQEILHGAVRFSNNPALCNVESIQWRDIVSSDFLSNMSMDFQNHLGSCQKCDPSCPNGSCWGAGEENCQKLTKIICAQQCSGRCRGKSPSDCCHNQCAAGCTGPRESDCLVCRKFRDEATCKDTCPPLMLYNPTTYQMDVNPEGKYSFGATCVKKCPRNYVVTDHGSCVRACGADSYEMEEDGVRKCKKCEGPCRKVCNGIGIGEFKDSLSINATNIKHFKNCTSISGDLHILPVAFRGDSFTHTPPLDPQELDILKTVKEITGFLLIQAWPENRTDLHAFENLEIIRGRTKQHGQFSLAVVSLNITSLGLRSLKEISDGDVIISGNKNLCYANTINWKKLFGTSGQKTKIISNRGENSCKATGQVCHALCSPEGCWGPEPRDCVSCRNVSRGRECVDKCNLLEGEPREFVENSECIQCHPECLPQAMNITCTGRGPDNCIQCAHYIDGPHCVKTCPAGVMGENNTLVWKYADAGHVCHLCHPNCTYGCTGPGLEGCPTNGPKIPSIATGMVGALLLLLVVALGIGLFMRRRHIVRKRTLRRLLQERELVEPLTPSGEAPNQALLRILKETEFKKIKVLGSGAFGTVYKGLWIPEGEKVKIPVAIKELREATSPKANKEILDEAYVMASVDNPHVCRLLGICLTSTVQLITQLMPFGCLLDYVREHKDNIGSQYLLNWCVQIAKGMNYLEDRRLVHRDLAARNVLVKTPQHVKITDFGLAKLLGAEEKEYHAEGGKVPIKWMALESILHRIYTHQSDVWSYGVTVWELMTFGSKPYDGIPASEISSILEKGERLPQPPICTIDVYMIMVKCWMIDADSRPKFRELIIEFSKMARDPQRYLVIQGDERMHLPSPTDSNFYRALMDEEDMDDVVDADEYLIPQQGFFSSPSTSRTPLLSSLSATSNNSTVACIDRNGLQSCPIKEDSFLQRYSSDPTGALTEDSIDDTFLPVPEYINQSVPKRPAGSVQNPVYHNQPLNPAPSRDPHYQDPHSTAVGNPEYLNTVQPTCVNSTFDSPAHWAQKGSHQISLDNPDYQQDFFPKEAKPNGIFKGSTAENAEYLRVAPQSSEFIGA
Chain of Histamine H1 receptor (Homo sapiens) (P35367 whole entry): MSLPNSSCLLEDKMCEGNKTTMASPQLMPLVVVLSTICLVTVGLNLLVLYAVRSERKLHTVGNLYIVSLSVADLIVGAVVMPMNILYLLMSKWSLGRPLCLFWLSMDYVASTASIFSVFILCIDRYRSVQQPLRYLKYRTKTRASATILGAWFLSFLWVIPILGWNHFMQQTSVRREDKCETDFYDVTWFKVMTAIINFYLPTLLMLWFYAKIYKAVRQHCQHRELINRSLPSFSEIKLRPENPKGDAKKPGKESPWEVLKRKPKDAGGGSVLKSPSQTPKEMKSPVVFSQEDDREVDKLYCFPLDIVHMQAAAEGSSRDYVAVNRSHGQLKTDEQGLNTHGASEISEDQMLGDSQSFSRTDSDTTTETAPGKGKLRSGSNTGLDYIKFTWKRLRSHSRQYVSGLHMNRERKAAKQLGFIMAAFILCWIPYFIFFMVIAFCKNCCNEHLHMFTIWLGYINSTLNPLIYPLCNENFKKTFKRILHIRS
Chain of Fibroblast growth factor receptor 3 (Homo sapiens) (P22607 23-806 limits assumed): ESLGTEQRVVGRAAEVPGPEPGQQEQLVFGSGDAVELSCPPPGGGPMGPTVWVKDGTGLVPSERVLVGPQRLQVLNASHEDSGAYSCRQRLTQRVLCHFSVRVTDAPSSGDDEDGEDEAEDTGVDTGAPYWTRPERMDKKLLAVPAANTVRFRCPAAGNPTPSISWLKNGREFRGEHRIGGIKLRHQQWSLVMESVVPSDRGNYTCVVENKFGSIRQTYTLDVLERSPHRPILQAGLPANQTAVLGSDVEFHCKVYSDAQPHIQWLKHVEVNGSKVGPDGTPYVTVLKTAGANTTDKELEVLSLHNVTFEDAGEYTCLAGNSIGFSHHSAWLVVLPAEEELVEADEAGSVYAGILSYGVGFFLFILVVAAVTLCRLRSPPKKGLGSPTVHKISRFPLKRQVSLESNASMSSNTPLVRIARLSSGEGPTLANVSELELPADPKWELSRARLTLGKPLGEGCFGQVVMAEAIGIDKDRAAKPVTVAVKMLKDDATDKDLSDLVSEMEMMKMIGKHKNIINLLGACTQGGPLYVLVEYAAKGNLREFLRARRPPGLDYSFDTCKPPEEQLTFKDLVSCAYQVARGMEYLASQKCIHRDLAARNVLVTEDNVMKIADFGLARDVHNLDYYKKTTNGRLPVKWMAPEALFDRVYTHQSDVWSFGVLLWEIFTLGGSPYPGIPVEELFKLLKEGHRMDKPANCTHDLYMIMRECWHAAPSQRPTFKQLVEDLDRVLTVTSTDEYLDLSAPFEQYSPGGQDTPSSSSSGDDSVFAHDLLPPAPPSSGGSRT
Chain of Citron Rho-interacting kinase (Homo sapiens) (O14578 whole entry): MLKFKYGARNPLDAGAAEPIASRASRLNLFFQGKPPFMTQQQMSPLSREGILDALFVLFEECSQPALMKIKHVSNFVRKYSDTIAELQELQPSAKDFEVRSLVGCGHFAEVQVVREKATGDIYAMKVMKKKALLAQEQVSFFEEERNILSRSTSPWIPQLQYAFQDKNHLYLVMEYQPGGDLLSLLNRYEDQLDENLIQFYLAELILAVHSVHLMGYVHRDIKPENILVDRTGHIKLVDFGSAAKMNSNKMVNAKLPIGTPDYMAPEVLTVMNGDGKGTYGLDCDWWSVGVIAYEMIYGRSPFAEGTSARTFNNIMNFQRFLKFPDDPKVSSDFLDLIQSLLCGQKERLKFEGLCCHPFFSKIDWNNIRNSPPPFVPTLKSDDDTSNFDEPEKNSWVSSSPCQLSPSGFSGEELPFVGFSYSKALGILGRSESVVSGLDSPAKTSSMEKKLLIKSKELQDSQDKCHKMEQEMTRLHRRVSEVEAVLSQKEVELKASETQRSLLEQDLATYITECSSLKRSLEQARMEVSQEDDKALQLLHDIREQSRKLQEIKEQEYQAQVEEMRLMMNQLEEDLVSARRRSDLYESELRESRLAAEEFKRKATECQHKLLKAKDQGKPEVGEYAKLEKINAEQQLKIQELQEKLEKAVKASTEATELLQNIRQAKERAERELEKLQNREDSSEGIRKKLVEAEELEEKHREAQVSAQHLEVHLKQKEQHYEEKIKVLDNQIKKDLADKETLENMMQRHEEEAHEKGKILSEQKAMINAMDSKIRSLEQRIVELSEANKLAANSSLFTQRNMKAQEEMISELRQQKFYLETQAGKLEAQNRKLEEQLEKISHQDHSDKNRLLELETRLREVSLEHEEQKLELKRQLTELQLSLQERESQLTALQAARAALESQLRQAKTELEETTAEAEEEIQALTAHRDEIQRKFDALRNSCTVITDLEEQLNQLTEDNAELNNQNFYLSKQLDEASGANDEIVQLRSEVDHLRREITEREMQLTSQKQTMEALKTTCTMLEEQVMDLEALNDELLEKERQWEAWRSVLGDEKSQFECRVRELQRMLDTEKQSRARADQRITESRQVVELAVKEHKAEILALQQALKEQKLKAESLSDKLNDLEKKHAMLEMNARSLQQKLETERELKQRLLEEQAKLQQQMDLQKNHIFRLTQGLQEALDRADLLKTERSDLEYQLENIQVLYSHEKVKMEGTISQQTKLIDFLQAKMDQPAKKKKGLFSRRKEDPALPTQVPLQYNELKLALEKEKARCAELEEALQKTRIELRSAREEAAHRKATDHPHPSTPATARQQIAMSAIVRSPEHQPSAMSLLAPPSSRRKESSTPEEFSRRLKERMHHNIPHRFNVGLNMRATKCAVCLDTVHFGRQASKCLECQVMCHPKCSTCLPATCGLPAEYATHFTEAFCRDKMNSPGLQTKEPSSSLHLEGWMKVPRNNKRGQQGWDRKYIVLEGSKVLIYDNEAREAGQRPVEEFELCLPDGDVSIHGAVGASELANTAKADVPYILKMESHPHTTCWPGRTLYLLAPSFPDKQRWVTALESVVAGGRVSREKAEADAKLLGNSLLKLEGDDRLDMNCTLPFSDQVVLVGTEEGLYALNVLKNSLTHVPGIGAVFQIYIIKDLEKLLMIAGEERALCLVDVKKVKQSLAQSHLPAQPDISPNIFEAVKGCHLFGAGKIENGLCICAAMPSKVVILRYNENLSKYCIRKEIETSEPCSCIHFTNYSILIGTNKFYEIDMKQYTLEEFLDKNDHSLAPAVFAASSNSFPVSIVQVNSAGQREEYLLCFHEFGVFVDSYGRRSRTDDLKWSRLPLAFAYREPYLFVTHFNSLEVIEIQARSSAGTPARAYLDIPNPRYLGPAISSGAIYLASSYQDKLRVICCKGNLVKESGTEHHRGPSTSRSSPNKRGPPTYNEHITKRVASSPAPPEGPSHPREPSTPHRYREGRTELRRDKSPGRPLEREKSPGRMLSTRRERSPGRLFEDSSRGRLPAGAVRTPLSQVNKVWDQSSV
Chain of Muscarinic acetylcholine receptor M3 (Homo sapiens) (P20309 whole entry, looked up): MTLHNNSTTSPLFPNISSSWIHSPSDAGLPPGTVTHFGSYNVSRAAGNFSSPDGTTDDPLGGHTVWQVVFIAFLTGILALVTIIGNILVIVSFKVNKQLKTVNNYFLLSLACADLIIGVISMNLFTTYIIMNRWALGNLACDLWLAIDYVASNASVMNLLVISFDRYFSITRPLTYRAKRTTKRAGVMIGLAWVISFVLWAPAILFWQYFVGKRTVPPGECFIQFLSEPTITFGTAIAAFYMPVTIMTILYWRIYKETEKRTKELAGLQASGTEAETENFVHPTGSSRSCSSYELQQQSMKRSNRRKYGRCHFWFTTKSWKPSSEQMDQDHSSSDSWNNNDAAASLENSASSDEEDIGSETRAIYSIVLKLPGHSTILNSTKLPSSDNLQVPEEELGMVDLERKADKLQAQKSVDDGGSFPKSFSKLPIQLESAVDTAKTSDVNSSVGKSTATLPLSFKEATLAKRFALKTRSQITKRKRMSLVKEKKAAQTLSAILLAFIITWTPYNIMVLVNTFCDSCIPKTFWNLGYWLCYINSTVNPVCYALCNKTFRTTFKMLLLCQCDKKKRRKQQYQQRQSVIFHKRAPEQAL

Compound | residual activity [1] [%] | inhibition [2] [%] | residual activity [3] [%] | % Inhibition of Control Agonist Response (Mean n=2) [4] [%] | % of Control Agonist Response (Mean n=2) [4] [%] | residual activity [5] [%] | residual activity [6] [%] | residual activity [7] [%] | residual activity [8] [%] | % Inhibition of Control Agonist Response (Mean n=2) [9] [%] | % of Control Agonist Response (Mean n=2) [9] [%] | residual activity [10] [%] | residual activity [11] [%] | residual activity [12] [%] | residual activity [13] [%] | residual activity [14] [%] | residual activity [15] [%] | residual activity [16] [%] | residual activity [17] [%] | residual activity [18] [%] | other results
O=C(N1CCS(=O)(=O)CC1)N1C[C@H](c2ccc(OC(F)(F)F)cc2)C[C@H](c2nc(C3CC3)no2)C1 [BAY-386] | 100 | -4.94 | 100 | 6.9 | 4.1 | 97 | 87 | 100 | 100 | 57 | 12.8 | 100 | 100 | 100 | 77 | 94 | 73 | 100 | 100 | 100 | residual activity [19]: 86%; inhibition [20]: -2.11%; inhibition [21]: 30.8%; residual activity [22]: 100%; residual activity [23]: 100%; residual activity [24]: 100%; residual activity [25]: 100%; inhibition [26]: -5.32%; residual activity [27]: 98%; residual activity [28]: 100%; residual activity [29]: 100%; residual activity [30]: 100%; residual activity [31]: 100%; residual activity [32]: 100%; inhibition [33]: 5.24%
Cc1noc([C@H]2C[C@@H](c3ccc(C(F)(F)F)cc3)CN(C(=O)N3CCS(=O)(=O)C3)C2)n1 [BAY-448] | 99 | 37.1 | 82 | -14.6 | 0.3 | 100 | 91 | 100 | 100 | 10.2 | 1.2 | 78 | 79 | 98 | 83 | 100 | 100 | 100 | 90 | 100 | residual activity [19]: 100%; inhibition [20]: -1.45%; inhibition [21]: 4.16%; residual activity [22]: 98%; residual activity [23]: 100%; residual activity [24]: 100%; residual activity [25]: 100%; inhibition [26]: 11.5%; residual activity [27]: 100%; residual activity [28]: 100%; residual activity [29]: 79%; residual activity [30]: 100%; residual activity [31]: 100%; residual activity [32]: 100%; inhibition [33]: 6.3%
